According to patent US12552825B2 (Zikani Therapeutics, Inc., priority 2019, dated 2026):
Values after ≈ are worked out from the molar mass of the structure shown.

Assays:
Assay type in all cases: cell-based
S. aureus MP-12 = assay: microbe, parasite or virus in culture; conditions: Staphylococcus aureus, MP12, read-out: MIC S. aureus MP-12
E. coli MP-4 = assay: MIC determination by CLSI broth dilution, E. coli MP-4; conditions: Escherichia coli, MP4, CLSI broth dilution; strain MP-4
P. aeruginosa MP-3 = assay: MIC determination by CLSI broth dilution, P. aeruginosa MP-3; conditions: Pseudomonas aeruginosa, MP3, strain MP-3
A. baumannii MP-15 = assay: MIC determination by CLSI broth dilution, A. baumannii MP-15; conditions: Acinetobacter baumannii, MP15, strain MP-15, read-out: MIC A. baumanii MP-15
K. pneumoniae MP-546 = assay: MIC determination by CLSI broth dilution, K. pneumoniae MP-546; conditions: Klebsiella pneumoniae, MP546, CLSI broth dilution; strain MP-546

SMILES | MIC (S. aureus MP-12) [µg/mL] | MIC (E. coli MP-4) [µg/mL] | MIC (P. aeruginosa MP-3) [µg/mL] | MIC (A. baumannii MP-15) [µg/mL] | MIC (K. pneumoniae MP-546) [µg/mL]
CCN(C)CCC[C@H]1COC(=O)C(C)(C)C(=O)[C@H](C)[C@@H](O[C@@H]2O[C@H](C)C[C@H](N(C)C)[C@H]2O)[C@](C)(OC)C[C@@H](C)CN1C [Compound 20, (3S,6R,8R,9R,10R)-9-(((2S,3R,4S,6R)-4-(dimethylamino)-3-hydroxy-6-methyltetrahydro-2H-pyran-2-yl)oxy)-3-(3-(ethyl(methyl)amino)propyl)-8-methoxy-4,6,8,10,12,12-hexamethyl-1-oxa-4-azacyclotridecane-11,13-dione] | 4 to 32 (≈ 6.67 to 53.3 µM) | < 4 | > 32 | > 32 | < 4
CCC(O)C(C)CN1CCC(C[C@@H]2COC(=O)C(C)(C)C(=O)[C@H](C)[C@@H](O[C@@H]3O[C@H](C)C[C@H](N(C)C)[C@H]3O)[C@](C)(OC)C[C@@H](C)CN2C)CC1 (some centres unmarked) [Compound 35] | 4 to 32 (≈ 5.73 to 45.8 µM) | < 4 | > 32 | > 32 | < 4
CO[C@]1(C)C[C@@H](C)CN(C)[C@H](CC2CCN(CC(C)(C)C)CC2)C(C)(C)OC(=O)C(C)(C)C(=O)[C@H](C)[C@H]1O[C@@H]1O[C@H](C)C[C@H](N(C)C)[C@H]1O [Compound 36] | 4 to 32 (≈ 5.75 to 46 µM) | < 4 | > 32 | 4 to 32 (≈ 5.75 to 46 µM) | 4 to 32 (≈ 5.75 to 46 µM)
CO[C@]1(C)C[C@@H](C)CN(C)[C@@H](CC2CCN(CC(C)(C)C)CC2)C(C)(C)OC(=O)C(C)(C)C(=O)[C@H](C)[C@H]1O[C@@H]1O[C@H](C)C[C@H](N(C)C)[C@H]1O [Compound 37] | > 32 | 4 to 32 (≈ 5.75 to 46 µM) | > 32 | > 32 | > 32
CCCN1CCC(C[C@@H]2[C@@H](C)OC(=O)C(C)(C)C(=O)[C@H](C)[C@@H](O[C@@H]3O[C@H](C)C[C@H](N(C)C)[C@H]3O)[C@](C)(OC)C[C@@H](C)CN2C)CC1 [Compound 38] | > 32 | < 4 | > 32 | > 32 | < 4
CO[C@]1(C)C[C@@H](C)CN(C)[C@H](CC2CCN(CC(C)(C)C)CC2)[C@@H](C)OC(=O)C(C)(C)C(=O)[C@H](C)[C@H]1O[C@@H]1O[C@H](C)C[C@H](N(C)C)[C@H]1O [Compound 39] | > 32 | < 4 | > 32 | > 32 | 4 to 32 (≈ 5.87 to 46.9 µM)
CO[C@]1(C)C[C@@H](C)CN(C)[C@H](CC2CCN(CC[C@@H](C)CCC=C(C)C)CC2)[C@@H](C)OC(=O)C(C)(C)C(=O)[C@H](C)[C@H]1O[C@@H]1O[C@H](C)C[C@H](N(C)C)[C@H]1O [Compound 40] | 4 to 32 (≈ 5.33 to 42.7 µM) | < 4 | > 32 | 4 to 32 (≈ 5.33 to 42.7 µM) | 4 to 32 (≈ 5.33 to 42.7 µM)
CCCN1CCC(C[C@H]2COC(=O)C(C)(C)C(=O)[C@H](C)[C@@H](O[C@@H]3O[C@H](C)C[C@H](N(C)C)[C@H]3O)[C@](C)(OC)C[C@@H](C)CN2C)CC1 [Compound 41] | > 32 | 4 to 32 (≈ 6.25 to 50 µM) | > 32 | > 32 | 4 to 32 (≈ 6.25 to 50 µM)
CCCN1CCC(C[C@@H]2COC(=O)C(C)(C)C(=O)[C@H](C)[C@@H](O[C@@H]3O[C@H](C)C[C@H](N(C)C)[C@H]3O)[C@](C)(OC)C[C@@H](C)CN2C)CC1 [Compound 42] | 4 to 32 (≈ 6.25 to 50 µM) | < 4 | > 32 | > 32 | < 4
CO[C@]1(C)C[C@@H](C)CN(C)[C@@H](CC2CCN(C(=O)C3CC3)CC2)COC(=O)C(C)(C)C(=O)[C@H](C)[C@H]1O[C@@H]1O[C@H](C)C[C@H](N(C)C)[C@H]1O [Compound 44] | 4 to 32 (≈ 6.01 to 48.1 µM) | > 32 | > 32 | > 32 | > 32
CO[C@]1(C)C[C@@H](C)CN(C)[C@H](CC2CCN(C(=O)C3CC3)CC2)COC(=O)C(C)(C)C(=O)[C@H](C)[C@H]1O[C@@H]1O[C@H](C)C[C@H](N(C)C)[C@H]1O [Compound 45] | 4 to 32 (≈ 6.01 to 48.1 µM) | 4 to 32 (≈ 6.01 to 48.1 µM) | > 32 | > 32 | 4 to 32 (≈ 6.01 to 48.1 µM)
CCCN1CCC(C[C@H]2N(C)C[C@H](C)C[C@@](C)(OC)[C@H](O[C@@H]3O[C@H](C)C[C@H](N(C)C)[C@H]3O)[C@@H](C)C(=O)C(C)(C)C(=O)OC2(C)C)CC1 [Compound 46] | 4 to 32 (≈ 5.99 to 47.9 µM) | < 4 | > 32 | > 32 | < 4
CO[C@]1(C)C[C@@H](C)CN(C)[C@H](CC2CCN(C(C)C)CC2)C(C)(C)OC(=O)C(C)(C)C(=O)[C@H](C)[C@H]1O[C@@H]1O[C@H](C)C[C@H](N(C)C)[C@H]1O [Compound 47] | 4 to 32 (≈ 5.99 to 47.9 µM) | < 4 | > 32 | > 32 | 4 to 32 (≈ 5.99 to 47.9 µM)
CCCN1CCC(C[C@@H]2N(C)C[C@H](C)C[C@@](C)(OC)[C@H](O[C@@H]3O[C@H](C)C[C@H](N(C)C)[C@H]3O)[C@@H](C)C(=O)C(C)(C)C(=O)OC2(C)C)CC1 [Compound 48] | > 32 | < 4 | > 32 | > 32 | 4 to 32 (≈ 5.99 to 47.9 µM)
CO[C@]1(C)C[C@@H](C)CN(C)[C@H](CC2CCN(C)CC2)[C@@H](C)OC(=O)C(C)(C)C(=O)[C@H](C)[C@H]1O[C@@H]1O[C@H](C)C[C@H](N(C)C)[C@H]1O [Compound 49] | > 32 | < 4 | > 32 | > 32 | 4 to 32 (≈ 6.39 to 51.1 µM)
CO[C@]1(C)C[C@@H](C)CN(C)[C@H](CC2CCN(CC(C)(C)C)CC2)COC(=O)C(C)(C)C(=O)[C@H](C)[C@H]1O[C@@H]1O[C@H](C)C[C@H](N(C)C)[C@H]1O [Compound 54] | 4 to 32 (≈ 5.99 to 47.9 µM) | < 4 | > 32 | > 32 | < 4
CO[C@]1(C)C[C@@H](C)CN(C)[C@@H](CC2CCN(CC(C)(C)C)CC2)COC(=O)C(C)(C)C(=O)[C@H](C)[C@H]1O[C@@H]1O[C@H](C)C[C@H](N(C)C)[C@H]1O [Compound 66] | > 32 | 4 to 32 (≈ 5.99 to 47.9 µM) | > 32 | > 32 | 4 to 32 (≈ 5.99 to 47.9 µM)
CO[C@]1(C)C[C@@H](C)CN(C)[C@@H](CC2CCN(CC(C)C)CC2)COC(=O)C(C)(C)C(=O)[C@H](C)[C@H]1O[C@@H]1O[C@H](C)C[C@H](N(C)C)[C@H]1O [Compound 67] | > 32 | 4 to 32 (≈ 6.12 to 48.9 µM) | > 32 | > 32 | 4 to 32 (≈ 6.12 to 48.9 µM)
CO[C@]1(C)C[C@@H](C)CN(C)[C@@H](CC2CCN(C(C)C)CC2)COC(=O)C(C)(C)C(=O)[C@H](C)[C@H]1O[C@@H]1O[C@H](C)C[C@H](N(C)C)[C@H]1O [Compound 68] | > 32 | 4 to 32 (≈ 6.25 to 50 µM) | > 32 | > 32 | 4 to 32 (≈ 6.25 to 50 µM)
CO[C@]1(C)C[C@@H](C)CN(C)[C@@H](CC2CCN(C3CC3)CC2)COC(=O)C(C)(C)C(=O)[C@H](C)[C@H]1O[C@@H]1O[C@H](C)C[C@H](N(C)C)[C@H]1O [Compound 69] | 4 to 32 (≈ 6.27 to 50.2 µM) | 4 to 32 (≈ 6.27 to 50.2 µM) | > 32 | > 32 | 4 to 32 (≈ 6.27 to 50.2 µM)
CCCCCCCN1CCC(C[C@H]2COC(=O)C(C)(C)C(=O)[C@H](C)[C@@H](O[C@@H]3O[C@H](C)C[C@H](N(C)C)[C@H]3O)[C@](C)(OC)C[C@@H](C)CN2C)CC1 [Compound 70] | > 32 | < 4 | > 32 | > 32 | 4 to 32 (≈ 5.75 to 46 µM)
CO[C@]1(C)C[C@@H](C)CN(C)[C@@H](CC2CCN(CC[C@@H](C)CCC=C(C)C)CC2)COC(=O)C(C)(C)C(=O)[C@H](C)[C@H]1O[C@@H]1O[C@H](C)C[C@H](N(C)C)[C@H]1O [Compound 71] | > 32 | 4 to 32 (≈ 5.43 to 43.5 µM) | > 32 | > 32 | > 32
CO[C@]1(C)C[C@@H](C)CN(C)[C@@H](CC2CCN(CC3CCCCC3)CC2)COC(=O)C(C)(C)C(=O)[C@H](C)[C@H]1O[C@@H]1O[C@H](C)C[C@H](N(C)C)[C@H]1O [Compound 72] | > 32 | < 4 | > 32 | > 32 | 4 to 32 (≈ 5.76 to 46.1 µM)
CO[C@]1(C)C[C@@H](C)CN(C)[C@@H](CN2CCN(S(C)(=O)=O)CC2)[C@H](C)OC(=O)C(C)(C)C(=O)[C@H](C)[C@H]1O[C@@H]1O[C@H](C)C[C@H](N(C)C)[C@H]1O [Compound 80, (2S,3S,6R,8R,9R,10R)-9-(((2S,3R,4S,6R)-4-(dimethylamino)-3-hydroxy-6-methyltetrahydro-2H-pyran-2-yl)oxy)-8-methoxy-2,4,6,8,10,12,12-heptamethyl-3-((4-(methylsulfonyl)piperazin-1-yl)methyl)-1-oxa-4-azacyclotridecane-11,13-dione] | 4 to 32 (≈ 5.79 to 46.3 µM) | > 32 | > 32 | > 32 | > 32
CO[C@]1(C)C[C@@H](C)CN(C)[C@@H](CN2CCN(S(=O)(=O)c3cn(C)cn3)CC2)[C@H](C)OC(=O)C(C)(C)C(=O)[C@H](C)[C@H]1O[C@@H]1O[C@H](C)C[C@H](N(C)C)[C@H]1O [Compound 81, (2S,3S,6R,8R,9R,10R)-9-(((2S,3R,4S,6R)-4-(dimethylamino)-3-hydroxy-6-methyltetrahydro-2H-pyran-2-yl)oxy)-8-methoxy-2,4,6,8,10,12,12-heptamethyl-3-((4-((1-methyl-1H-imidazol-4-yl)sulfonyl)piperazin-1-yl)methyl)-1-oxa-4-azacyclotridecane-11,13-dione] | 4 to 32 (≈ 5.28 to 42.3 µM) | > 32 | > 32 | > 32 | > 32
